According to paper PMC3492430, “In Vitro and In Vivo Activity of an Organic Tellurium Compound on Leishmania (Leishmania) chagasi” (PLoS ONE, 2012):

Biological target: T1, cathepsin B (cathepsin B-like cysteine protease) (Leishmania chagasi, UniProt Q9GQN7)
T1 construct: native enzyme in amastigote lysate
Experiment: spectrofluorometric protease assay in amastigote lysate with cathepsin B-specific substrate Abz-Gly-Ile-Val-Arg-Ala-Lys(Dnp)-OH
Assay type: biochemical

T1 sequence (Q9GQN7 entry or part of it): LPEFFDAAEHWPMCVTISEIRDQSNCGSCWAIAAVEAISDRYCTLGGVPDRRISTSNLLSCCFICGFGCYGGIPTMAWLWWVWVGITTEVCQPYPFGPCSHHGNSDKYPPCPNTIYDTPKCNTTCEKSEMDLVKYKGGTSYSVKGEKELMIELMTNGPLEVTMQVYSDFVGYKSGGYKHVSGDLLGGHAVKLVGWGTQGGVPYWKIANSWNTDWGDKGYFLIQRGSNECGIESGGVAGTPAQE

| SMILES | IC50 [µM] |
| --- | --- |
| CCCNC(=O)[C@H]1O[C@@H]1C(=O)N[C@H](C(=O)N1CCC[C@H]1C(=O)O)[C@@H](C)CC [CA074] | 2.41 ± 0.15 |
| COc1ccc([Te]2(Cl)OC3(CCCCC3)/C2=C\Cl)cc1 (centres unmarked) [RF07, 4-{2-Chloro-3-[chloromethylidene]-1-oxa-2-λ^4-telluraspiro[3.5]non-2-yl}phenyl Methyl Ether] | 4.47 ± 0.13 |
